Source: PubChem BioAssay AID435002 (The Scripps Research Institute Molecular Screening Center, 2010)

What follows are compounds tested on HEK293 cells, ROS production inhibition counter-screen (assay: ROS production inhibition in HEK293 cells, late-stage follow-up, counter-screen for NOX1 inhibitor project, cell-based, IC50, set 2 (AID 435002)).
With `COc1cc(-c2nc(-c3ccccc3)c(-c3ccccc3)[nH]2)ccc1O` the IC50 was 1810 nM. `FC(F)(F)c1ccc2c(c1)Nc1ccccc1S2` was tested, and the IC50 was 1000 nM. For `CN(C)c1ccc(NC(=O)Nc2ccc(OCc3ccccc3)cc2)cc1`, the IC50 was 2370 nM. `Cc1cc(Cl)ccc1NC(=S)NNC(=S)Nc1ccc(F)cc1` was tested, and the IC50 was 960 nM.
